Experimental data reported in US4594337A, “Methods of controlling mycoplasma infections” (Eli Lilly and Company, priority 1985, dated 1986).
In brackets after ≈: the same amount, converted by molar mass.

What was measured:
Assay type in all cases: cell-based
[1] = tested on: Mycoplasma gallisepticum 38502; assay: MIC, conventional broth-dilution microtiter test, Mycoplasma gallisepticum 38502 (tylosin-susceptible); details: Mycoplasmoides gallisepticum, Mycoplasma gallisepticum 38502, tylosin-susceptible strain
From the text: (§1) The MIC's in Table I were obtained using a conventional broth-dilution microtiter test.

[2] = tested on: Mycoplasma gallisepticum 34159; assay: MIC, conventional broth-dilution microtiter test, Mycoplasma gallisepticum 34159 (tylosin-resistant); details: Mycoplasmoides gallisepticum, Mycoplasma gallisepticum 34159, tylosin-resistant strain
From the text: as §1

[3] = tested on: Mycoplasma gallisepticum 41313; assay: MIC, conventional broth-dilution microtiter test, Mycoplasma gallisepticum 41313 (tylosin-resistant); details: Mycoplasmoides gallisepticum, Mycoplasma gallisepticum 41313, tylosin-resistant strain
From the text: as §1

[4] = tested on: Mycoplasma synoviae 46995; assay: MIC, conventional broth-dilution microtiter test, Mycoplasma synoviae 46995; details: Mycoplasmopsis synoviae
From the text: as §1

[5] = tested on: Mycoplasma hyorhinis S-41313; assay: MIC, conventional broth-dilution microtiter test, Mycoplasma hyorhinis S-41313; details: S41313
From the text: as §1

[6] = tested on: Mycoplasma hyopneumoniae S-5972; assay: MIC, conventional broth-dilution microtiter test, Mycoplasma hyopneumoniae S-5972; details: Mesomycoplasma hyopneumoniae, S5972
From the text: as §1

MIC [1] | MIC [2] | MIC [3] | MIC [4] | MIC [5] | MIC [6] | SMILES
0.78 µg/mL (≈ 0.826 µM) | 50 µg/mL (≈ 53 µM) | 50 µg/mL (≈ 53 µM) | 0.39 µg/mL (≈ 0.413 µM) | 6.25 µg/mL (≈ 6.62 µM) |  | CCC1OC(=O)CC(OC(C)=O)C(C)C(OC2OC(C)C(OC3CC(C)(O)C(O)C(C)O3)C(N(C)C)C2O)C(CC=O)CC(C)C(=O)C=CC(C)=CC1COC1OC(C)C(O)C(O)C1OC (stereo not shown) [3-Acetyl-macrocin, 3-O-Acetylmacrocin]
0.195 µg/mL (≈ 0.192 µM) | 6.25 µg/mL (≈ 6.16 µM) | 3.12 µg/mL (≈ 3.08 µM) | ≤ 0.048 µg/mL | 0.39 µg/mL (≈ 0.385 µM) | 0.048 µg/mL (≈ 0.0473 µM) | CCCC(=O)OC1C(C)OC(OC2C(C)OC(OC3C(CC=O)CC(C)C(=O)C=CC(C)=CC(COC4OC(C)C(O)C(O)C4OC)C(CC)OC(=O)CC(OC(C)=O)C3C)C(O)C2N(C)C)CC1(C)O (stereo not shown) [3-Acetyl-4"-(n-Butyryl)-macrocin, 3-O-acetyl-4"-O-(n-butyryl)macrocin]
0.78 µg/mL (≈ 0.975 µM) | > 50 µg/mL | 50 µg/mL (≈ 62.5 µM) | 0.39 µg/mL (≈ 0.488 µM) | 25 µg/mL (≈ 31.3 µM) |  | CCC1OC(=O)CC(OC(C)=O)C(C)C(OC2OC(C)C(O)C(N(C)C)C2O)C(CC=O)CC(C)C(=O)C=CC(C)=CC1COC1OC(C)C(O)C(O)C1OC (stereo not shown) [3-Acetyl-lactenocin, 3-O-Acetyllactenocin]
≤ 0.048 µg/mL | 3.12 µg/mL (≈ 3.03 µM) | 3.12 µg/mL (≈ 3.03 µM) | ≤ 0.048 µg/mL | 0.39 µg/mL (≈ 0.379 µM) | 0.048 µg/mL (≈ 0.0467 µM) | CCC1OC(=O)CC(OC(C)=O)C(C)C(OC2OC(C)C(OC3CC(C)(O)C(OC(=O)CC(C)C)C(C)O3)C(N(C)C)C2O)C(CC=O)CC(C)C(=O)C=CC(C)=CC1COC1OC(C)C(O)C(O)C1OC (stereo not shown) [3-Acetyl-4"-Isovaleryl-macrocin, 3-O-acetyl-4"-O-isovalerylmacrocin]
